Experimental data from publication PMC10565663, “^177Lu-labeled PSMA targeting therapeutic with optimized linker for treatment of disseminated prostate cancer; evaluation of biodistribution and dosimetry” (Frontiers in Oncology, 2023).
Several values for one entry are separate records, joined by “and”; a condition that tells them apart may be missing. Equal entries are not always repeated.

Columns and labels:
PC3-pip cells = test: Cellular processing and internalization (acid wash method); format: cell-based, human; conditions: 2 nM, after 24 h of continuous incubation at 37°C
Method: Internalization of radiolabeled PSMA binders was evaluated using an acid wash method ([21]). PC3-pip cells were incubated with 2 nM of [^177Lu]Lu-BQ7876 or [^177Lu]Lu-PSMA-617 in RPMI medium at 37°C (5% of CO2). At predetermined time points (1, 2, 6 and 24 h), cells were treated with 0.5 mL of 4 M urea solution in a 0.2 M glycine buffer, pH 2.5, for 5 minutes on ice. After that, the acidic supernatant was collected and this fraction was considered to be a membrane-bound activity. To lyse the cells, 0.5 mL of 1 M sodium hydroxide solution was added and incubated at 37°C for at least 20 min. Alkaline-containing solution was collected, and the basic fraction was considered to be an internalized activity. Samples were measured using gamma-counter.

[1] = molecular target: T1, PSMA-expressing PC-3pip prostate cancer cells (Homo sapiens, UniProt Q04609); test: Half-maximal inhibitory concentration: inhibition of [^111In]In-PSMA-617 binding; conditions: vs [^111In]In-PSMA-617 (1 nM); PC3-pip cells; 4°C, 4 hours
T1 construct: expressed in transfected cells; host or cells: PC3-pip (PSMA-transfected PC-3 human prostate cancer cells), provided by Prof; M. Pomper, Johns Hopkins University
Method: For the determination of a half-maximal inhibitory concentration (IC50), PSMA-617 was labeled with indium-111. For this purpose, 2 nmol PSMA-617 were dissolved in 40 µL 0.2 M ammonium acetate, pH 5.5, and 12 µL (10 MBq) of [^111In]InCl3 solution in 0.01 M HCl was added. The mixture was vortexed and incubated at 85 °C for 30 min. The yield was determined using iTLC eluted with 0.2 M citric acid, pH 2.0. Since the radiochemical yield was over 98%, [^111In]In-PSMA-617 was used in further experiments without purification.
For determination of IC50, BQ7876 and PSMA-617 were loaded with non-radioactive Lu of natural isotopic composition (^natLu) by incubation with a three-fold molar excess of ^natLuCl3 at 85 °C for 30 min in 0.2 M ammonium acetate, pH 5.5. Cells were washed with a PBS solution and incubated at 4°C for 4 hours with [^111In]In-PSMA-617 (1 nM) in the presence of increasing concentrations (range 0 to 2 μM) of competitors, ^natLu-BQ7876 or ^natLu-PSMA-617. Thereafter, cells were detached, collected, and cell-associated activity was measured using gamma-counter. The half-maximal inhibitory concentration was calculated using GraphPad software (version 9.3.1 for Windows, GraphPad Software, LLC. CA, USA).

[2] = molecular target: T2, PSMA-expressing PC3-pip cells (Homo sapiens, UniProt Q04609); test: In vitro binding specificity test (PSMA saturation with unlabeled compound); conditions: 1 nM radiolabeled compound, 100-fold molar excess unlabeled, 1 h 37°C
T2 construct: expressed in transfected cells; host or cells: PC3-pip (PSMA-transfected PC-3 human prostate cancer cells), provided by Prof; M. Pomper, Johns Hopkins University
Method: The human prostate cancer cell line PC-3 was purchased from the American Type Culture Collection (ATCC; LGC Promochem, Borås, Sweden). The cells were cultured in Roswell Park Memorial Institute (RPMI) 1640 medium supplemented with 10% fetal bovine serum (FBS), 2 mM L-glutamine, penicillin 100 IU/mL and 100 µg/mL streptomycin at 37°C and 5% CO2 atmosphere. The PSMA-transfected and overexpressing variant of PC3 cell line, PC3-pip, was provided by Prof. M. Pomper, Department of Radiology, the Johns Hopkins University, Baltimore, MD, US. PC3-pip cells were cultured in two types of RPMI media. The first one contained 20% fetal bovine serum, 1% of L-glutamine (5 mL) and 1% of PEST (penicillin and streptomycin 5 mL). The second one contained 20% fetal bovine serum, 1% of L-glutamine (5 mL) and 1% of PEST (penicillin and streptomycin 5 mL) and 10 μg/mL of pyramycin. The second media is used every second passage to maintain clone selection. All in vitro experiments were performed in triplicates. For a typical experiment, cells were seeded one day before the experiment in Petri dishes (35 mm) in the amount of 1×10^6 cell/dish.
[…] specificity was tested using a saturation method. Before the experiment, cells were washed with PBS solution. […] Cell-associated activity was measured using gamma-counter and presented as the percentage of added activity.

[3] = parameters: method as in Kuo et al. 2018; conditions: humans; extrapolated from mouse biodistribution; ref Kuo et al. 2018; cited from earlier work
PC3-pip xenografts [4] = test: Biodistribution in mice bearing PSMA-positive PC3-pip xenografts; format: in vivo, Balb/c nu/nu mice; conditions: 3 h p.i.; PC3-pip xenograft mice; n=4
Method: To prepare xenografts, PC3-pip and PC3 (PSMA-negative control) cells (10^7 cells in 100 μL of media) were subcutaneously injected in the hind legs of female Balb/c nu/nu mice. At the time of the experiment, the average mouse weight was 18 ± 2 g. The average tumor weight was 0.2 ± 0.1 g.
Biodistribution of [^177Lu]Lu-BQ7876 was determined at 1, 3, 24, 48 and 130 hours p.i. Mice were injected with [^177Lu]Lu-BQ7876 (280 kBq/mouse). The amount of substance was adjusted to 80 pmol/mouse using unlabeled substance. A group of four animals per data point was used. The labeled peptide was injected into the tail vein. Mice were anaesthetized by a lethal intraperitoneal injection of ketamine and xylazine mixture solution (the dose of ketamine was 250 mg/kg and the dose of xylazine was 25 mg/kg) and sacrificed. Mice were exsanguinated by heart puncture using a heparinized syringe under anaesthesia. Organs and tissues were excised and weighed, and the activity of each organ was measured. The percentage of injected dose per gram of sample (%ID/g) was calculated. Activity in the rest of the gastrointestinal tract was measured to estimate hepatobiliary excretion. The rest of the body was also collected and its activity was measured. […]

PC3-pip xenografts [5] = test: microSPECT/CT imaging of mice bearing PC3-pip xenografts; format: in vivo, Balb/c nu/nu mice; conditions: 3 h pi, 80 pmol/mouse
Method: To confirm the biodistribution data, imaging of mice bearing PC3-pip xenografts was performed. The mice were injected with [^177Lu]Lu-BQ7876 (900 kBq/mouse, 80 pmol/mouse) or [^177Lu]Lu-PSMA-617 (1200 kBq/mouse, 80 pmol/mouse). Imaging was performed at 3 h pi using nanoScan SPECT/CT (Mediso Medical Imaging Systems, Hungary) according to the protocol describe earlier ([25]).

T2 sequence (Q04609 whole entry): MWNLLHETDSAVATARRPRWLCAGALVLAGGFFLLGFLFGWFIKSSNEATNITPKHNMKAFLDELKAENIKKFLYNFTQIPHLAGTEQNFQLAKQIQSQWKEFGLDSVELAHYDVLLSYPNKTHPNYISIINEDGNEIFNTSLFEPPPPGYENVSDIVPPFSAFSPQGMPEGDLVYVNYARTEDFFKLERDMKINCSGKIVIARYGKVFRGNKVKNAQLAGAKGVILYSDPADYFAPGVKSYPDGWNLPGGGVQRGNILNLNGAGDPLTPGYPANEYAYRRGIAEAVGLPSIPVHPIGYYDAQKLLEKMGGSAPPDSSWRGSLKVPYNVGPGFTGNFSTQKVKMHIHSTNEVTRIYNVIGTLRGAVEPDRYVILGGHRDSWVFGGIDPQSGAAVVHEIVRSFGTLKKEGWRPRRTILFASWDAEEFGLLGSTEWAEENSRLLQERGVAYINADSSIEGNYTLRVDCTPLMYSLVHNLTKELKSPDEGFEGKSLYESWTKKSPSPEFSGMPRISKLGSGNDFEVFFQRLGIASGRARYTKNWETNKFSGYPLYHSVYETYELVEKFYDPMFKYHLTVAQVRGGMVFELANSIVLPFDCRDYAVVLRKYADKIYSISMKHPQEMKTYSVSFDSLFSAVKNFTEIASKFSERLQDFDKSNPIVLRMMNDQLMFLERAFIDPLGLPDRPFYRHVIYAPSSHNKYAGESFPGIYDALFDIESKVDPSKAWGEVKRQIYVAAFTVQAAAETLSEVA
T1 sequence (Q04609 whole entry): as above

Compound: O=C(O)CC[C@H](NC(=O)N[C@@H](CCCCNC(=O)[C@H](Cc1ccc2ccccc2c1)NC(=O)[C@H]1CC[C@H](CNC(=O)CN2CCN(CC(=O)O)CCN(CC(=O)O)CCN(CC(=O)O)CC2)CC1)C(=O)O)C(=O)O [PSMA-617]
- internalized fraction of the total cell-associated activity (PC3-pip cells): 10.0 ± 2.9%

Compound: O=C([O-])CN1CCN(CC(=O)[O-])CCN(CC(=O)NC[C@H]2CC[C@H](C(=O)N[C@@H](Cc3ccc4ccccc4c3)C(=O)NCCCC[C@H](NC(=O)N[C@@H](CCC(=O)O)C(=O)O)C(=O)O)CC2)CCN(CC(=O)[O-])CC1.[Lu+3] [^natLu-PSMA-617]
- IC50 [1]: 61 nM and 60 nM

Compound: O=C([O-])CN1CCN(CC(=O)[O-])CCN(CC(=O)NC[C@H]2CC[C@H](C(=O)N[C@@H](Cc3ccc4ccccc4c3)C(=O)NCCCC[C@H](NC(=O)N[C@@H](CCC(=O)O)C(=O)O)C(=O)O)CC2)CCN(CC(=O)[O-])CC1.[177Lu+3] [[^177Lu]Lu-PSMA-617]
- Binding of labeled compound to cells after saturation of PSMA with large excess of unlabeled compound [2]: highly significant (p< 5 x 10^-6) reduction of binding
- Absorbed dose, adrenals [3]: 7.64E-03 mGy/MBq
- Absorbed dose, brain [3]: 4.32E-04 mGy/MBq
- Absorbed dose, gallbladder wall [3]: 8.76E-04 mGy/MBq
- Absorbed dose, heart wall [3]: 1.00E-03 mGy/MBq
- Absorbed dose, kidneys [3]: 1.11E-01 mGy/MBq
- Absorbed dose, liver [3]: 1.37E-03 mGy/MBq
- Absorbed dose, lungs [3]: 1.81E-03 mGy/MBq
- Absorbed dose, osteogenic cells [3]: 8.30E-04 mGy/MBq
- Absorbed dose, pancreas [3]: 7.60E-04 mGy/MBq
- Absorbed dose, prostate [3]: 1.17E-03 mGy/MBq
- Absorbed dose, red marrow [3]: 7.59E-04 mGy/MBq
- Absorbed dose, small intestine [3]: 1.72E-03 mGy/MBq
- Absorbed dose, spleen [3]: 4.42E-03 mGy/MBq
- Absorbed dose, stomach wall [3]: 1.69E-03 mGy/MBq
- Absorbed dose, testes [3]: 1.05E-03 mGy/MBq
- Absorbed dose, thymus [3]: 7.19E-04 mGy/MBq
- Absorbed dose, thyroid [3]: 7.11E-04 mGy/MBq
- Absorbed dose, total body [3]: 1.70E-03 mGy/MBq
- Uptake in blood (PC3-pip xenografts [4]): 0.06±0.02 %IA/g
- Uptake in bone (PC3-pip xenografts [4]): 0.11±0.02 %IA/g
- Uptake in heart (PC3-pip xenografts [4]): 0.08±0.07 %IA/g
- Uptake in kidney (PC3-pip xenografts [4]): 9±3 %IA/g
- Uptake in liver (PC3-pip xenografts [4]): 0.24±0.02 %IA/g
- Uptake in lung (PC3-pip xenografts [4]): 0.21±0.07 %IA/g
- Uptake in muscle (PC3-pip xenografts [4]): 0.07±0.02 %IA/g
- Uptake in pancreas (PC3-pip xenografts [4]): 0.09±0.04 %IA/g
- Uptake in salivary gland (PC3-pip xenografts [4]): 0.12±0.04 %IA/g
- Uptake in spleen (PC3-pip xenografts [4]): 0.5±0.3 %IA/g
- Uptake in tumor (PC3-pip xenografts [4]): 12±3 %IA/g
- Activity accumulation in microSPECT/CT imaging (PC3-pip xenografts [5]): accumulated avidly in tumors

Compound: O=C([O-])CN1CCN(CC(=O)[O-])CCN(CC(=O)NC[C@H]2CC[C@H](C(=O)N[C@@H](Cc3ccc4ccccc4c3)C(=O)NCCCC[C@H](NC(=O)N[C@@H](CCC(=O)O)C(=O)O)C(=O)O)CC2)CCN(CC(=O)[O-])CC1.[111In+3] [[^111In]In-PSMA-617]
- Binding of labeled compound to cells after saturation of PSMA with large excess of unlabeled compound [2]: highly significant (p< 5 x 10^-6) reduction of binding
